Assay results published in patent US3963707A, “Novel N-nitroso compounds, compositions containing such compounds, processes for their preparation and methods of treatment therewith, and novel intermediates” (Aktiebolaget Leo, priority 1973, dated 1976).

Assays:
[1] = tested on: Walker carcinosarcoma 256; experiment: Walker carcinosarcoma 256 test; type: in vivo, Sprague Dawley rats; settings: for Lethality: died/used animals
From the text: (§1) The experimental design and the interpretation of the results have been in accordance with the standards set by the CCNSC (Cancer Chemotherapy Reports, January 1959 and December 1962), and by the DR&D (Cancer Chemotherapy Reports, September 1972, Vol. 3, No. 2).
(§2) The way of administration is by the intraperitoneal route (i.p.) in each case.
Walker carcinosarcoma 256
Experimental animals: Sprague Dawley rats.
Tumour implant: Tumour pieces with 2-4 mm diameter, subcutaneously.
Therapy: Daily injections i.p. for 5 days starting on the day following implantation.
Termination: The animals are killed on the 9th day.
Evaluation: Weights of tumours of test animals are compared with those of control animals. The differences, in per cent of weights of tumours of control animals, give per cent tumour inhibition.
The lethality is given as the number of animals which died in the experiment/the number of animals used in the experiments.

[2] = tested on: Ehrlich ascites tumour, ELD hyperdiploid (46 chromosomes); experiment: Ehrlich ascites tumour test (LD50, ED50, therapeutic index); type: in vivo, SPF NMRI mice; settings: additional compounds, result in words
From the text: The high activity against tumours is further illustrated in these experiments by comparisons with known antitumour agents used in the therapy. The therapeutic indexes (T.I.), i.e. the ratios LD50/ED50, are in all comparisons much more favourable with the compounds of the present invention.
LD50 is the dose that caused a 50 percent lethality of the animals, ED50 is the dose that caused a 50 percent reduction of tumour size.
as §1, §2
Ehrlich ascites tumour, ELD hyperdiploid (46 chromosomes)
Experimental animals: SPF NMRI mice.
Tumour implant: 2 × 10^6 tumour cells i.p.
(§3) Therapy: One injection i.p. on the day following implantation.
Termination: The animals are killed on the 8th day.
Evaluation: Weights of tumours of test animals compared with those of control animals.

[3] = tested on: Hepatoma AH 130; experiment: in vivo; design: species or system SPF Wistar rats
Procedure, shortened: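 SPF Wistar rats were implanted i.p. with 5 × 10^6 AH 130 cells and given one i.p. dose the next day. On day 8 they were killed and tumour weights were compared with controls. ED50 is the dose halving tumour size, LD50 the 50% lethal dose, and T.I. is LD50/ED50.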

[4] = tested on: Lymphatic leukemia L 1210; experiment: Lymphatic leukemia L 1210 test; type: in vivo, CDF1 (C3H×DBA/2)F1 mice; settings: dose of 1000 mg/kg, comparative compounds
From the text: as §1, §2
Lymphatic leukemia L 1210
Experimental animals: CDF1 (C3H×DBA/2)F1 mice.
Tumour implant: 10^5 tumour cells i.p.
as §3
Evaluation: a) The survival time of the test animals (t) expressed as the percentage of that of control animals (c).
b. Weight change in the test animals (T) compared with that of the control animals (c) up to the 5th day.
c. The mortality rate must not exceed 35% in the test animals on the 5th day of therapy.

[5] = doses 1 × 250, 1 × 500 and 1 × 1000 mg/kg respectively
[6] = additional compounds, result in words

SMILES	anti-tumor activity [2]	anti-tumor activity [3, 6]	also measured
C[C@]12CC[C@H](OC(=O)N(CCCBr)N=O)CC1=CC[C@@H]1[C@@H]2CC[C@]2(C)C(=O)CC[C@@H]12 [dehydroepiandrosterone - 3β-N-(3-bromopropyl)-N-nitroso carbamate]	exhibit anti-tumor activity		Tumour inhibition % ([1]; 5×125 mg/kg i.p.): 39%; Lethality ([1]; 5×125 mg/kg i.p.): 0/8
CN(CCCl)C(=O)O[C@H]1CC[C@@]2(C)C(=CC[C@@H]3[C@@H]2CC[C@]2(C)C(=O)CC[C@@H]32)C1 [dehydroepiandrosterone-3β-N-(2-chloroethyl)-N-methyl carbamate, reference compound]			Tumour inhibition % ([1]; 5×500 mg/kg i.p.): < 10%; Lethality ([1]; 5×500 mg/kg i.p.): 0/8; anti-tumor activity [3, 5]: inactive
C[C@]12CC[C@H](OC(=O)N(C(=O)N(CCCl)N=O)c3ccc(Cl)cc3)CC1=CC[C@@H]1[C@@H]2CC[C@]2(C)C(=O)CC[C@@H]12 [dehydroepiandrosterone-3β-/N^2-(p-chlorophenyl)-N^4-(2-chloroethyl)-N^4-nitroso allophanate/]	exhibit anti-tumor activity	exhibit anti-tumor activity	
C[C@]12CC[C@@H]3c4ccc(OC(=O)N(CCCl)N=O)cc4CC[C@H]3[C@@H]1C[C@@H](OC(=O)CCC(=O)O)[C@@H]2OC(=O)CCC(=O)O [estriol-3-N-(2-chloroethyl)-N-nitroso carbamate-16α,17β-bis-hemisuccinate]	exhibit anti-tumor activity	exhibit anti-tumor activity	
C[C@]12CC[C@H]3[C@@H](CCC4=CC(=O)CC[C@@H]43)[C@@H]1CC[C@@H]2OC(=O)N(C(=O)N(CCCl)N=O)C1CCCCC1 [19-nortestosterone-17β-/N^2-cyclohexyl-N^4-(2-chloroethyl)-N^4-nitroso allophanate/]	exhibit anti-tumor activity	exhibit anti-tumor activity	
CC(=O)Oc1ccc2c(c1)CC[C@@H]1[C@@H]2CC[C@]2(C)[C@@H](OC(=O)N(C(=O)N(CCCl)N=O)C3CCCCC3)CC[C@@H]12 [estradiol-3-acetate-17β-/N^2-cyclohexyl-N^4-(2-chloroethyl)-N^4-nitroso allophanate/]	exhibit anti-tumor activity	exhibit anti-tumor activity	
C[C@]12CC[C@@H](OC(=O)N(CCCl)N=O)C[C@@H]1CC[C@@H]1[C@@H]2CC[C@]2(C)[C@@H](O)CC[C@@H]12 [androstanediol-3α-N-(2-chloroethyl)-N-nitroso carbamate]	exhibit anti-tumor activity	exhibit anti-tumor activity	
C#C[C@]1(OC(C)=O)CC[C@H]2[C@@H]3CCc4cc(OC(=O)N(CCCl)N=O)ccc4[C@H]3CC[C@@]21C [17α-ethynylestradiol-17β-acetate-3-N-(2-chloroethyl)-N-nitroso carbamate]	exhibit anti-tumor activity	exhibit anti-tumor activity	
CC(C)CCC[C@@H](C)[C@H]1CC[C@H]2[C@@H]3CC=C4C[C@@H](OC(=O)N(C(=O)N(CCCl)N=O)C5CCCCC5)CC[C@]4(C)[C@H]3CC[C@]12C [cholesterol-3β-/N^2-cyclohexyl-N^4-(2-chloroethyl)-N^4-nitroso allophanate/]	exhibit anti-tumor activity	exhibit anti-tumor activity	
CCCCN(C(=O)O[C@H]1CC[C@@]2(C)C(=CC[C@@H]3[C@@H]2CC[C@]2(C)C(=O)CC[C@@H]32)C1)C(=O)N(CCCl)N=O [dehydroepiandrosterone-3β-/N^2-n-butyl-N^4-(2-chloroethyl)-N^4-nitroso allophanate/]	exhibit anti-tumor activity	exhibit anti-tumor activity	
CCCOc1ccc(CCC(=O)O[C@H]2CC[C@H]3[C@@H]4CCc5cc(OC(=O)N(CCCl)N=O)ccc5[C@H]4CC[C@]23C)cc1 [estradiol-3-N-(2-chloroethyl)-N-nitroso carbamate-17β-(p-propoxyphenyl-propionate)]	exhibit anti-tumor activity	exhibit anti-tumor activity	
CN(C(=O)O[C@H]1CC[C@@]2(C)C(=CC[C@@H]3[C@@H]2CC[C@]2(C)C(=O)CC[C@@H]32)C1)C(=O)N(CCCl)N=O [dehydroepiandrosterone-3β-/N^2-methyl-N^4-(2-chloroethyl)-N^4-nitroso allophanate/]	exhibit anti-tumor activity	exhibit anti-tumor activity	
C[C@]12CC[C@@H]3c4ccc(OC(=O)N(CCCl)N=O)cc4CC[C@H]3[C@@H]1CC[C@@H]2OS(=O)(=O)O [estradiol-3-N-(2-chloroethyl)-N-nitroso carbamate-17β-sodium sulphate]	exhibit anti-tumor activity	exhibit anti-tumor activity	
C[C@]12CC[C@H](OC(=O)N(CCF)N=O)CC1=CC[C@@H]1[C@@H]2CC[C@]2(C)C(=O)CC[C@@H]12 [dehydroepiandrosterone-3β-N-(2-fluoroethyl)-N-nitroso carbamate]	exhibit anti-tumor activity	exhibit anti-tumor activity	
C[C@]12CC[C@H](OC(=O)N(CCCl)C(=O)N(CCCl)N=O)CC1=CC[C@@H]1[C@@H]2CC[C@]2(C)C(=O)CC[C@@H]12 [dehydroepiandrosterone-3β-/N^2,N^4-bis (2-chloroethyl)-N^4-nitroso allophanate/]	exhibit anti-tumor activity	exhibit anti-tumor activity	
COc1ccc(N(C(=O)O[C@H]2CC[C@@]3(C)C(=CC[C@@H]4[C@@H]3CC[C@]3(C)C(=O)CC[C@@H]43)C2)C(=O)N(CCCl)N=O)cc1 [dehydroepiandrosterone-3β-/N^2-(p-methoxyphenyl)-N^4-(2-chloroethyl)-N^4-nitroso allophanate/]	exhibit anti-tumor activity	exhibit anti-tumor activity	
C[C@]12CC[C@H](OC(=O)NCCCl)CC1=CC[C@@H]1[C@@H]2CC[C@]2(C)C(=O)CC[C@@H]12 [dehydroepiandrosterone-3β-N-(2-chloroethyl) carbamate, reference compound]			effect on L 1210 [4]: without effect; anti-tumor activity [3, 5]: inactive
C[C@]12CCC(=O)C[C@@H]1CC[C@@H]1[C@@H]2CC[C@]2(C)[C@@H](OC(=O)N(C(=O)N(CCCl)N=O)C3CCCCC3)CC[C@@H]12 [dihydrotestosteron-17β-/N^2-cyclohexyl-N^4-(2-chloroethyl)-N^4-nitroso allophanate/]	exhibit anti-tumor activity	exhibit anti-tumor activity	
CC(=O)[C@@]1(OC(=O)N(CCCl)N=O)CC[C@H]2[C@@H]3CCC4=CC(=O)CC[C@]4(C)[C@H]3CC[C@@]21C [17α-hydroxy-progesterone,17α-N-(2-chloroethyl)-N-nitroso carbamate]	exhibit anti-tumor activity	exhibit anti-tumor activity	
C[C@]12CC[C@H]3[C@@H](CCC4=CC(=O)CC[C@@]43C)[C@@H]1CC[C@@H]2C(=O)COC(=O)N(CCCl)N=O [deoxycorticosterone-21-N-(2-chloroethyl)-N-nitroso carbamate]	exhibit anti-tumor activity	exhibit anti-tumor activity	
C[C@]12CC[C@H](OC(=O)NC(=O)N(CCCl)N=O)CC1=CC[C@@H]1[C@@H]2CC[C@]2(C)C(=O)CC[C@@H]12 [dehydroepiandrosterone-3β-/N^4-(2-chloroethyl)-N^4-nitroso allophanate/]	exhibit anti-tumor activity	exhibit anti-tumor activity	
C[C@]12CCC(=O)C=C1CC[C@@H]1[C@@H]2[C@@H](O)C[C@@]2(C)[C@H]1CC[C@]2(O)C(=O)COC(=O)N(CCCl)N=O [hydrocortisone-21-N-(2-chloroethyl)-N-nitroso carbamate]	exhibit anti-tumor activity	exhibit anti-tumor activity	
C#C[C@]1(OC(C)=O)CC[C@H]2[C@@H]3CCc4cc(OC(=O)N(CCCl)C(=O)N(CCCl)N=O)ccc4[C@H]3CC[C@@]21C [17α-ethynylestradiol-17β-acetate-3-/N^2,N^4-bis(2-chloroethyl)-N^4-nitroso allophanate/]	exhibit anti-tumor activity	exhibit anti-tumor activity	
